# Like-named read-outs stand apart in the source and are kept apart here. Peptide text beside a SMILES is read from it.
# Tests used:
# [1] = test system: Cryptococcus neoformans IFM 5844; experiment: microbe, parasite or virus in culture; assay type: cell-based; details: IFM 5844, 48 h; read-out: MIC
# Experimental: (§1) The susceptibility of Cryptococcus neoformans IFM 5844 to 20 peptides (Supplementary Table 1) was tested in a widely used synthetic medium to cultivate yeasts (YNB) and in a serum-free medium what is able to support the proliferation of macrophage cells (X-VIVO).
# YNB medium: five-fold diluted Difco Yeast Nitrogen Base w/o Amino Acids medium (Becton, Dickinson and Company, Sparks, MD, USA) supplemented with 1 % dextrose
# (§2) The minimal inhibitory concentration (MIC) of each peptide was determined by using micro-dilution assay. The C. neoformans suspensions were adjusted to 5 × 10^4 cells/mL concentration in either YNB or X-VIVO medium. A 96-well microtiter plate was prepared by adding 95 µL suspension per well followed by 5 µL of serially two-fold diluted peptide solutions achieving a final volume of 100 µl. The concentration of the peptides ranged from 25 to 0.39 µM. For control samples, 5 µL pure medium was added to the yeast cell suspension instead of peptides. Plates were incubated at 37 °C for 48 h in X-VIVO medium and 30 °C for 72 h in YNB medium. After incubation, optical density was measured at 620 nm using a SPECTROstar Nano plate reader (BMG LabTech, Offenburg, Germany). […] The experiments were carried out in three independent biological replicates.
# [2] = test system: C. neoformans IFM 5844 cells; experiment: Short-term sub-MIC killing, CFU counts; assay type: cell-based, Cryptococcus neoformans; details: for proportion of viable cells (CFU relative to control): 0.19 µM (half-MIC), YNB, 2 × 10^6 cells/mL; for reduction in colony-forming units: 30 min
# Experimental: To assess the time-dependent fungicidal activity of X1-NCR247C, C. neoformans cells cultivated for 16 h at 30 °C were collected by centrifugation and washed twice with sterile distilled water. […] Following treatment, cells were pelleted by centrifugation washed with distilled water and serially diluted 10-fold and 100-fold. Fifty microliters of each dilution were plated onto solid YPD medium in triplicate.
# After treatment, the cells were pelleted by centrifugation, washed with distilled water and serially diluted 10-fold and 100-fold. Fifty microliters of each dilution were spread onto solid YPD medium in triplicate. For both experimental setups colony forming unit (CFU) counts were determined after 48-hours incubation at 30 °C. The CFU values of peptide-treated samples were compared to untreated control samples, providing insights into the extent of fungal viability reduction. Three independent biological replicates were performed.
# [3] = test system: Cryptococcus neoformans IFM 5844; experiment: Minimal fungicidal concentration (MFC) determination, spotting on YPD; assay type: cell-based; details: cultures from MIC assays diluted and spotted onto solid YPD, 30 °C, 48 h
# [4] = test system: C. neoformans IFM 5844 intact cells; experiment: Susceptibility of intact cells to peptide, CFU counts; assay type: cell-based, Cryptococcus neoformans; details: 30 min, YNB + 0.8 M sorbitol
# Experimental: The C. neoformans IFM 5844 strain was grown in YPD nutrient solution at 30 °C for 12 h by vigorous shaking until the exponential phase was reached (about 5 × 10^7 cells/mL).
# To assess peptide susceptibility, 2 × 10^6 protoplasts and the same number of intact cells were treated separately with X1-NCR247C peptide at 0.78 or 0.39 µM in YNB supplemented with 0.8 M sorbitol for 30 min at 30 °C. […] Fifty microliters from each dilution were mixed into 2 mL of top-agar (0.8 M sorbitol with 1 % agar) and spread onto the surface of YPD solid medium supplemented with 0.8 M sorbitol. Plates were incubated for 3 days at 30 °C, after which colony forming units were counted to determine the survival rate of peptide-treated cells and protoplasts.
# J774.2 mouse macrophages = experiment: Phagocytosis of peptide-treated C. neoformans cells by macrophages, imaging flow cytometry; assay type: cell-based; details: yeast cells pre-treated with 3.12 µM peptide for 15 min, 5:1 yeast-to-macrophage ratio
# Experimental: C. neoformans was cultivated for 16 h at 30 °C, collected by centrifugation (5000 g, 5 min), and washed twice with sterile distilled water and once with PBS. […] After 15 min of incubation at 30 °C, the peptide-containing solution was removed by centrifugation, and the C. neoformans cells were washed with PBS and re-suspended in 100 µL PBS. Untreated C. neoformans cells served as controls.
# To label C. neoformans cells, the suspension was supplemented with 11 µL of 1 M Na₂CO₃ (pH 10) and 2 µL of Alexa Fluor 488-labelled-concanavalin (Invitrogen, Waltham, MA, US), followed by incubation at room temperature for 30 min, protected from light. After PBS washing, the cell density was determined using a Bürker chamber and adjusted to the required concentration. […]
# Following incubation, cells from each technical replicate were collected by centrifugation (200 g, 10 min), washed once with PBS, and re-suspended in 100 µL PBS buffer for detection. A random selection of 1000 macrophages was evaluated in each experimental sample, and the proportion of macrophages harboring fluorescently labelled C. neoformans cells was quantified utilizing imaging flow cytometry (FlowSight®, Amnis-EMD Millipore) equipped with a 488-nm excitation laser, with data analysis conducted through the IDEAS software platform.
# [5] = test system: Cryptococcus neoformans IFM 5844; assay type: cell-based; details: IFM 5844, 48 h
# Experimental: as §1
# X-VIVO medium: half-diluted X-VIVO™ 15 cell culture medium (Lonza, Verviers, Belgium).
# as §2
# C. neoformans cells = experiment: Effect of X1-NCR247C and calcofluor white on CFU; assay type: cell-based, Cryptococcus neoformans
# Experimental: To assess the effect of X1-NCR247C peptide and calcofluor white, C. neoformans cells were subjected to different treatments. […] For staining, cells were treated with calcofluor white at 2.5 µg/mL for the same duration. As a control, cells were incubated only with calcofluor white for 20 min.
# For combined treatment, cells were first exposed to calcofluor white (2.5 µg/mL) for 5 min, followed by the addition of X1-NCR247C (0.39 µM), and the incubation continued for 15 additional minutes. Following treatment, cells were washed once with sterile distilled water to remove residual peptide and dye. Serial 10-, 100-, 1000-, and 10,000-fold dilutions were prepared, and 50 µL from each dilution was plated onto solid YPD medium in triplicate. After 48 h of incubation at 30 °C, colony-forming units were counted to determine cell viability under each condition.
structure (smiles),measurement,setting,value
CSCC[C@H](NC(=O)[C@H](CCCCN)NC(=O)[C@H](Cc1ccccc1)NC(=O)[C@H](CC(N)=O)NC(=O)[C@H](CC(C)C)NC(=O)[C@@H]1CCCN1C(=O)[C@@H](N)CCCNC(=N)N)C(=O)N[C@@H](CC(C)C)C(=O)N[C@@H](CCCNC(=N)N)C(=O)N[C@@H](Cc1ccccc1)C(=O)N[C@@H](Cc1c[nH]c2ccccc12)C(=O)NCC(=O)N[C@@H](CCC(N)=O)C(=O)N[C@@H](CCC(N)=O)C(=O)N[C@@H](CCC(N)=O)C(=O)N[C@@H](CS)C(=O)N[C@@H](CCCNC(=N)N)C(=O)N[C@@H](CCCNC(=N)N)C(=O)N1CCC[C@H]1C(=O)N[C@@H](CC(C)C)C(=O)N[C@@H](Cc1ccc(O)cc1)C(=O)N[C@@H](CS)C(=O)N[C@@H](CCCNC(=N)N)C(=O)N[C@@H](CCCNC(=N)N)C(=O)N[C@@H](CCCNC(=N)N)C(N)=O [X1-NCR247C] (H-RPLNFKMLRFWGQQQCRRPLYCRRR-NH2; N-terminus assumed),MIC,[1],1.56 µM
same,proportion of viable cells (CFU relative to control),[2]; 5 min,25%
same,proportion of viable cells (CFU relative to control),[2]; 60 min,5%
same,reduction in colony-forming units,"[2]; half-MIC (0.19 µM), p ≤ 0.001",highly significant decrease
same,reduction in colony-forming units,"[2]; quarter-MIC, p ≤ 0.05",notable reduction
same,fungistatic or fungicide mode of action,[3],fungicidal effect
same,CFU count reduction relative to untreated control,[4]; 0.39 µM,97%
same,CFU count reduction relative to untreated control,[4]; 0.78 µM,99%
same,percentage of phagocytic macrophages,"J774.2 mouse macrophages; 30 min post-infection, untreated control 5.12 %",7.95%
same,percentage of phagocytic macrophages,"J774.2 mouse macrophages; 60 min post-infection, untreated control 6.95 %",33.95%
same,MIC,[5],3.12 µM
same,effect on CFU counts,"C. neoformans cells; calcofluor white (2.5 µg/mL) pre-treatment 5 min, then peptide 0.39 µM for 15 min",no reduction in the number of colony-forming units was observed
same,effect on CFU counts,"C. neoformans cells; peptide 0.39 µM (MIC) alone, 20 min, YNB, p ≤ 0.0001",significantly decrease cell viability

# Source: PMC12164026, “Plant-derived nodule-specific cysteine-rich peptides as potent antifungal agents against Cryptococcus neoformans: mechanisms of action, chimeric peptide enhancement, and immunomodulatory effects” (Current Research in Microbial Sciences, 2025)
